In article PMC9437721, “Identification and characterization of two Isatis indigotica O-methyltransferases methylating C-glycosylflavonoids” (Horticulture Research, 2022):
Like-named read-outs stand apart in the source and are kept apart here.

System: T1, IiOMT2
T1 construct: N-terminal His6-SUMO tag kept (pE-SUMO), E. coli Rosetta (DE3), Ni-NTA
Test: O-methyltransferase assay, UPLC, Michaelis-Menten fit
Type: biochemical, Isatis indigotica
Conditions: 480 μM SAM, Tris-HCl pH 9.0, 45 °C
Text: O-methyltransferase assay, UPLC, Michaelis-Menten fit on IiOMT2

Row | SMILES | Km (read-out: Luteolin / IiOMT2) | Km (read-out: Isoorientin / IiOMT2)
1 | O=c1cc(-c2ccc(O)c(O)c2)oc2cc(O)cc(O)c12 [compound 2, luteolin] | 77 ± 12.6 µM | –
2 | O=c1cc(-c2ccc(O)c(O)c2)oc2cc(O)c([C@@H]3O[C@H](CO)[C@@H](O)[C@H](O)[C@H]3O)c(O)c12 [compound 1, isoorientin] | – | 62.1 ± 16.1 µM
